“Also recorded” adds a separate entry of the source. Blank lines part the entries; values can stand above or below the compound they belong to. Residues, ends and D or L forms follow the SMILES beside them. Groups on a side chain read outwards from the residue. *: point of attachment. X1 = CC(=O)NC1C(O)[C@H](O)C(COS(=O)(=O)O)O[C@H]1OCCn1cc(CCC(=O)*)nn1; X2 = O=C(O)C1O[C@@H](OCCn2cc(CCC(=O)*)nn2)C(O)C(O)[C@@H]1O; Acetyl(2-(HOCH2CH2OCH2CH2O)) = O=C(COCCOCCO)*; AEEA = NCCOCCOCC(=O)O; Propionyl = CCC(=O)*
Experiments:
[1] = tested on: BMP-2 signaling in C2C12 cells; experiment: C2C12 osteoblast differentiation with BMP-2, alkaline phosphatase (ALP) activity; format: cell-based, mouse; details: for effect on BMP-2 activity / osteoblast differentiation (in words) / level of ALP expression relative to BMP-2 alone (factor): C2C12, BMP-2 75 ng/mL
Description: (§1) C2C12 Cell Culture: C2C12 mouse myoblasts (ATCC) were maintained in Dulbecco's Modified Eagle's Medium with high glucose and L-glutamine (DMEM, ATCC), supplemented with 100 U/mL of penicillin and 100 μg/mL streptomycin (P/S, Life Technologies) and 10% heat inactivated FBS (Life Technologies), and passaged at 80-90% confluence. Media was changed every 2 days. Passages 3 to 8 were used for experiments. Cells were grown at 37° C., 5% CO2 in a humidified atmosphere. Cells were detached following a 3 minute incubation at 37° C. with 0.05% Trypsin-EDTA (Life Technologies), then resuspended in DMEM (10% FBS). Unless stated otherwise, cells were seeded at 75,000 cells/mL (400 μL/well in a 48-well plate), and allowed to attach for a minimum of 3 hours prior to experiments.
C2C12 Osteoblast Differentiation: PA samples were thermally annealed as described for Cryo-TEM. PA solutions were spun down, pipetted for homogeneous mixing, then diluted to 1 mM with DMEM (no FBS). In a 1.5 mL microcentrifuge tube, PA solutions were further diluted with DMEM (5% FBS), gently vortexed, and appropriate amounts of GFs (20 μg/mL) were added to yield [PA]=125 μM and [GF]=375 ng/mL. For mixing, the microcentrifuge tube was gently inverted several times by hand. Following, cells were treated by adding a 100 μl, of the PA/GF mixture per well (48-well plate), yielding a final 500 μl, differentiation medium with [PA]=25 μM and [GF]=75 ng/mL. For controls, the initial 5 mM PA solution was substituted with either PBS alone (saline) or heparin in PBS at appropriate concentrations. Cells were cultured for 3 days without changing the media, and osteoblast differentiation was assessed.
Alkaline Phosphatase Activity: Alkaline phosphatase (ALP) activity was measured as a marker of osteoblast differentiation (ref. 38; incorporated by reference in its entirety). On day 3, media was removed, and cells were lysed with a 100 μL, of M-PER Mammalian Protein Extraction Reagent (Life Technologies), supplemented with 1×Halt Protease Inhibitor Cocktail (Thermo Fisher Scientific), for 30 minutes on an orbital shaker. A 20 μL, volume of the cell lysate was incubated with 200 μL, of the QUANTI-Blue colorimetric ALP assay (InvivoGen) for 30 minutes to 2 hours at 37° C., in duplicates. The ALP activity was assessed by reading the OD at 630 nm with Cytation3 microplate reader (BioTek). Data were normalized to the respective endogenous DNA levels using Quant-iT PicoGreen dsDNA Assay Kit (Life Technologies). Two separate experiments with 4 replicates each were averaged for statistical analysis. […]

[2] = tested on: BMP-2, BMP-4, noggin, Shh, VEGF, FGF-1, FGF-2; experiment: Surface plasmon resonance (SPR) binding to immobilized heparin binding GFs; set-up: species or system human (Noggin murine); details: analytes 50-500 nM; GFs immobilized on alginate surface; 25° C.
Description: (§2) Surface Plasmon Resonance: The binding interactions between PAs (analytes) and growth factors (ligands) were analyzed via surface plasmon resonance (SPR) using a ProteON XPR36 system (Bio-Rad Laboratories). PA samples were thermally annealed as described for Cryo-TEM. PA solutions were spun down, pipetted for homogeneous mixing, and sequentially diluted to appropriate concentrations using Tween buffer (Milli-Q water, 0.05% Tween-20). Lyophilized powders of GFs were reconstituted to 5 μM without any carrier proteins according to the manufacturer's instructions. BMP-2, BMP-4, Shh, VEGF, and FGF-2 were further diluted to 200 nM in ProteOn Acetate Buffer pH 5.5, while FGF-1 was diluted to 200 nM in ProteOn Acetate Buffer pH 4.5. Noggin was diluted to 300 nM in ProteOn Acetate Buffer pH 5.5.
GFs were immobilized on a ProteOn GLC-Chip via amino coupling as described previously, with slight modifications (37). First, the alginate surface was activated with a freshly prepared mixture of 20 mM 1-Ethyl-3-[3-dimethylaminopropyl]carbodiimide hydrochloride (EDC) and 5 mM N-hydroxysulfosuccinimide (Sulfo-NHS) in Milli-Q water (vertical flow cells, 30 μL/min, 3 min). Following, GFs were immobilized on vertical flow cells 1 to 5 by perfusing a freshly prepared 200 nM (or 300 nM) solution over the activated alginate surface (30 μL/min, 5 min). Blank buffer was perfused on vertical cell 6 as a reference. The remaining esters were deactivated with 1 M ethanolamine (30 μL/min, 3 min). The association and dissociation phases were performed at 25° C. in Tween buffer. Prior to each analyte injection, the horizontal flow cells 1 to 6 were regenerated with 10 mM NaOH (100 μL/min, 30 sec) and washed once with Tween buffer (30 μL/min, 3 min). Varied analyte concentrations were injected to horizontal flow cells 1 to 5, with flow cell 6 as a reference (30 μL/min, 5 min), followed by dissociation with Tween buffer (30 μL/min, 10 min). For analysis, SPR sensorgram from the reference flow cell was subtracted from all measurement flow cells. Interaction data were evaluated using the BIAEvaluation 4.1 software. […]

[3] = Zeta potential measurements; format: physicochemical
Description: Zeta Potential Measurements: Zeta (ζ) potential was measured using a Malvern Zetasizer Nano ZS (n=3). PA samples were thermally annealed as described for Cryo-TEM. Following, PAs were diluted to 0.5 mM in DMEM. PA solutions were water-bath sonicated for 1 min prior to zeta potential measurement. Background reading from DMEM alone was subtracted from the final measurements.

BMP-4 = biological target: T1, BMP-4 (Homo sapiens, UniProt P12644); experiment: SPR binding to BMP-4; details: azide-derivative, not assembled
T1 construct: from E. coli were purchased from PeproTech, in their mature forms; purchased PeproTech; host or cells: E. coli
T1 sequence (P12644 293-408): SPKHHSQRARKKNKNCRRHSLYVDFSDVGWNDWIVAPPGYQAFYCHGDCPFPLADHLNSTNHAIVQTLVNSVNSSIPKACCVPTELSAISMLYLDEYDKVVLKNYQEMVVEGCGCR
Description: as §2
(§3) GFs were immobilized on a ProteOn GLC-Chip via amino coupling as described previously, with slight modifications (37). First, the alginate surface was activated with a freshly prepared mixture of 20 mM 1-Ethyl-3-[3-dimethylaminopropyl]carbodiimide hydrochloride (EDC) and 5 mM N-hydroxysulfosuccinimide (Sulfo-NHS) in Milli-Q water (vertical flow cells, 30 μL/min, 3 min). […] Interaction data were evaluated using the BIAEvaluation 4.1 software. […]

BMP-2 [4] = biological target: T2, BMP-2 (Homo sapiens, UniProt P12643); experiment: BMP-2 stability assay (ELISA) in C2C12 culture; format: cell-based; details: 75 ng/mL BMP-2; 0, 3, 9, 24 h
T2 construct: purchased Medtronic Sofamor Danek (Minneapolis, Minn.)
T2 sequence (P12643 283-396): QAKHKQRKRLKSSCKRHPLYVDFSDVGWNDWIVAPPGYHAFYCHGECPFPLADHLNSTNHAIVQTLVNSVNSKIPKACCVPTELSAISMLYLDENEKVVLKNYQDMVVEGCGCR
Description: BMP-2 Stability Assay: C2C12 cells were seeded at 150,000 cells/mL (500 μL/well in a 48-well plate) and incubated overnight. Following, the media was replaced with treatment media (75 ng/mL BMP-2 in the presence/absence of PA 1, PA 4, and monosaccharide 1. The media was collected at 0, 3, 9, and 24 h and stored at −80° C. prior to BMP-2 quantification. In addition, the cell monolayers were lysed at the indicated time with a 100 μL of M-PER Mammalian Protein Extraction Reagent, supplemented with 1×Halt Protease Inhibitor Cocktail, and also stored at −80° C. prior to BMP-2 quantification. The amount of BMP-2 present in the media and cell extracts was assayed using a BMP-2 Quantikine ELISA kit (R&D Systems) according to the manufacturer's specifications.

BMP-2 [5] = biological target: T2, BMP-2; experiment: SPR binding to BMP-2; details: azide-derivative, not assembled
Description: as §2, §3

[6] = tested on: BMP-4 signaling in C2C12 cells; experiment: C2C12 osteoblast differentiation with BMP-4, ALP activity; format: cell-based, mouse
Description: as §1
C2C12 Osteoblast Differentiation: PA samples were thermally annealed as described for Cryo-TEM. PA solutions were spun down, pipetted for homogeneous mixing, then diluted to 1 mM with DMEM (no FBS). […] Cells were cultured for 3 days without changing the media, and osteoblast differentiation was assessed.
Alkaline Phosphatase Activity: Alkaline phosphatase (ALP) activity was measured as a marker of osteoblast differentiation (ref. 38; incorporated by reference in its entirety). […] The ALP activity was assessed by reading the OD at 630 nm with Cytation3 microplate reader (BioTek). […]

Compound: CCC(=O)N[C@H](C(=O)N[C@H](C(=O)N[C@@H](C)C(=O)N[C@@H](C)C(=O)N[C@@H](CCC(=O)O)C(=O)N[C@@H](CCC(=O)O)C(N)=O)C(C)C)C(C)C [PA 6, E2 PA] (Propionyl-VVAAEE-NH2)
- increase in ALP activity ([1]; PA 6 alone, 0% monosaccharide density, 25 μM PA, BMP-2 75 ng/mL, 3 days): 5 fold

- binding to heparin binding GFs (SPR) [2]: moderate binding
Compound: heparin [reference compound]
- effect on BMP-2 activity / osteoblast differentiation (in words) ([1]; 3 days): dose response increase; also recorded: more potent response than HS
- level of ALP expression relative to BMP-2 alone (factor) ([1]; 3 days): 5

Compound: CCC(=O)N[C@H](C(=O)N[C@H](C(=O)N[C@@H](C)C(=O)N[C@@H](C)C(=O)N[C@@H](CCC(=O)O)C(=O)N[C@@H](CCC(=O)O)C(=O)N[C@@H](CCCCNC(=O)COCCOCCNC(=O)CCc1cn(CCO[C@@H]2OC(COS(=O)(=O)O)[C@@H](O)C(O)C2NC(C)=O)nn1)C(N)=O)C(C)C)C(C)C (stereo partly drawn) [PA 2, 6S-GlcNAc PA] (Propionyl-VVAAEEK([AEEA-X1])-NH2)
- increase in BMP-2 signaling (ALP activity) ([1]; nanofibers containing the monosulfated monosaccharide, density not stated, 25 μM PA, BMP-2 75 ng/mL): 3 fold
- zeta potential / net charge of nanofibers [3]: comparable zeta potentials

- binding to heparin binding GFs (SPR) [2]: essentially does not bind
- binding to BMP-4 (SPR) (BMP-4): bound neither
- BMP-2 stability in cell culture media (BMP-2 [4]): not
- binding to BMP-2 (SPR) (BMP-2 [5]): bound neither
Compound: 2-Azidoethyl 2-acetamido-3,4,6-tri-O-sulfo-2-deoxy-β-D-glycopyranoside [monosaccharide 1]
- effect on BMP-2 activity / osteoblast differentiation (in words) ([1]; 3 days): not to be the case
- amplification of BMP-4 signaling [6]: not to be the case

Compound: CCC(=O)N[C@H](C(=O)N[C@H](C(=O)N[C@@H](C)C(=O)N[C@@H](C)C(=O)N[C@@H](CCC(=O)O)C(=O)N[C@@H](CCC(=O)O)C(=O)N[C@@H](CCCCNC(=O)COCCOCCNC(=O)CCc1cn(CCO[C@@H]2OC(C(=O)O)[C@@H](O)C(O)C2O)nn1)C(N)=O)C(C)C)C(C)C (stereo partly shown) [PA 3, GlcA PA] (Propionyl-VVAAEEK([AEEA-X2])-NH2)
- effect on BMP-2 activity / osteoblast differentiation (in words) ([1]; 3 days): did not potentiate
- ALP activity, PA co-assembled with PA 6 ([1]; incorporated at the level of 10% or higher in PA 6, 25 μM PA, BMP-2 75 ng/mL): not to enhanced
- zeta potential / net charge of nanofibers [3]: comparable zeta potentials

Compound: Heparan sulfate [reference compound]
- effect on BMP-2 activity / osteoblast differentiation (in words) ([1]; 3 days): dose response increase
- level of ALP expression relative to BMP-2 alone (factor) ([1]; 3 days): 3

- zeta potential / net charge of nanofibers [3]: screened the net negative charge
Compound: CCC(=O)N[C@H](C(=O)N[C@H](C(=O)N[C@@H](C)C(=O)N[C@@H](C)C(=O)N[C@@H](CCC(=O)O)C(=O)N[C@@H](CCC(=O)O)C(=O)N[C@@H](CCCCNC(=O)COCCOCCO)C(N)=O)C(C)C)C(C)C [PA 5, OEG PA] (Propionyl-VVAAEEK(Acetyl(2-(HOCH2CH2OCH2CH2O)))-NH2)
- effect on BMP-2 activity / osteoblast differentiation (in words) ([1]; 3 days): negligible effect
